Assays:
[1] = biological target: CHK1 (Homo sapiens (Human), UniProt O14757); experiment: CHK1 DELFIA assay as described in Collins et al., 2009a; type: biochemical
[2] = tested on: HT29 cells; experiment: Selectivity in cells for CHK1-dependent checkpoint abrogation versus cytotoxicity (SRB IC50/MIA IC50); type: cell-based; conditions: SRB IC50/MIA IC50, both in HT29 cells
Procedure: Assay 3: Assessment of Selectivity in Cells for CHK1-Dependent Checkpoint Abrogation versus Cytotoxicity
Compound cytotoxicity was assessed using a 96 hour sulforhodamine B assay (SRB, Sigma catalog number S9012). HT29 or SW620 cells were seeded at 1.6 to 3.2×10^3 cells per well in 96-well plates in a volume of 160 μL medium and allowed to attach for 36 hours prior to treatment. […] Cells were incubated for 96 hours (four doublings) at 37° C. in a humidified 5% CO2 environment and then fixed and stained with SRB.
The Activity Index (AI), a measure of the selectivity of the CHK1 inhibitor test compounds for effecting CHK1-dependent checkpoint abrogation versus cytotoxicity was calculated from the ratio of the CHK1 inhibitor cytotoxicity IC50 versus the MIA IC50 (i.e., Al=CHK1 inhibitor SRB IC50/MIA IC50), both measured in HT29 cells.

[3] = tested on: HT29 cells; experiment: Cellular efficacy in combination with SN38 (SRB potentiation); type: cell-based; conditions: SRB IC50/Potentiation IC50, 96 hour, SN38 at its IC50
Procedure: Assay 4: Cellular Efficacy in HT29 or SW620 Colon Carcinoma Cells in Combination with SN38 or Gemcitabine
HT29 or SW620 cells were seeded at 1.6 to 3.2×10^3 cells per well in 96-well plates in a volume of 160 μL medium and allowed to attach for 36 hours prior to treatment.
The Potentiation Index (PI) was calculated as a measure of the ability of the CHK1 inhibitor to enhance SN38 or gemcitabine cytotoxicity and was defined as the ratio of the Cytotoxicity IC50 of the CHK1 inhibitor alone versus the Potentiation IC50 of the CHK1 inhibitor combined with the genotoxic (i.e., PI=CHK1 inhibitor SRB IC50/Potentiation IC50).

[4] = tested on: HT29 cells; experiment: Cellular potency in Mitosis Inhibition Assay (MIA), checkpoint abrogation after etoposide; type: cell-based; conditions: versus Y-154
Procedure: Assay 2: Cellular Potency in Mitosis Inhibition Assay (MIA)
Checkpoint abrogation by CHK1 kinase function inhibitors in combination with genotoxic agents was assessed using a europium based ELISA assay designed to quantify the number of cells trapped in mitosis after treatment with a genotoxic agent (to induce G2 arrest) followed by a CHK1 inhibitor test compound in combination with nocodazole to abrogate this arrest. HT29 cells were seeded at 10^4 cells per well into 96-well plates in a volume of 160 μL and left to attach for 36 hours. […] After genotoxic drug exposure, the medium was removed and replaced with fresh medium (160 μL). […] CHK1 inhibitor test compounds were added in 40 μL aliquots using quadruplicate wells for each concentration. After 21 hours exposure, the medium was removed and cells were fixed in 4% formaldehyde in phosphate buffered saline (PBS, pH 7.4, pre-cooled to 4° C.) for 30 minutes at 4° C., followed by 100% methanol (pre-cooled to −20° C.) for 10 minutes at ambient temperature. Wells were washed with PBS and blocked with 5% dried milk (Marvel) in Tris-buffered saline (TBS, pH 7.4) at 37° C. for 30 minutes. Each well was washed three times with water containing 0.1% Tween 20. […] Primary antibody was removed and wells were washed with water containing 0.1% Tween 20. […] Europium emissions were counted on a Wallac, Victor2 counter (Perkin-Elmer, Bucks UK).

[5] = in vivo; conditions: female Balb/c mice, 10 mg/kg iv and po
Procedure: Assay 5: Oral Bioavailability and Pharmacokinetics in Mice
All work was performed in accordance with the Home Office regulations under the Animals (Scientific Procedures) Act 1986 and according to UKCCCR guidelines for animal experimentation.
CHK1 inhibitor compounds were formulated in 10% DMSO, 1% Tween 20 and 89% sterile saline. Female Balb/c mice (Charles River UK Ltd, Margate, U.K.) were administered intravenously (iv) and orally (po) with 10 mg/kg of CHK1 inhibitor compound. Control animals received the vehicle alone. Groups of 3 mice were injected per timepoint. At 5, 15 and 30 minutes and 1, 2, 4, 6 and 24 hours after dosing, blood was collected by cardiac puncture with heparinised syringes from mice under anaesthesia (halothane/oxygen mix). Following centrifugation (9000×g, 2 minutes, 4° C.) plasma was frozen on dry ice and stored at −80° C. Tissues were excised, snap frozen in liquid nitrogen and stored at −80° C. Thawed plasma samples were extracted by protein precipitation using 3 volumes of methanol containing internal standard. […]. After centrifugation, supernatant was transferred for analysis. Extracted plasma samples were analysed by LC-MS-MS on an Agilent 1200 or 1290 LC coupled to an Agilent 6410 triple quadrupole mass spectrometer for the quantitation of the CHK1 inhibitor compound and internal standard. […]

Sequence of CHK1 (O14757 whole entry): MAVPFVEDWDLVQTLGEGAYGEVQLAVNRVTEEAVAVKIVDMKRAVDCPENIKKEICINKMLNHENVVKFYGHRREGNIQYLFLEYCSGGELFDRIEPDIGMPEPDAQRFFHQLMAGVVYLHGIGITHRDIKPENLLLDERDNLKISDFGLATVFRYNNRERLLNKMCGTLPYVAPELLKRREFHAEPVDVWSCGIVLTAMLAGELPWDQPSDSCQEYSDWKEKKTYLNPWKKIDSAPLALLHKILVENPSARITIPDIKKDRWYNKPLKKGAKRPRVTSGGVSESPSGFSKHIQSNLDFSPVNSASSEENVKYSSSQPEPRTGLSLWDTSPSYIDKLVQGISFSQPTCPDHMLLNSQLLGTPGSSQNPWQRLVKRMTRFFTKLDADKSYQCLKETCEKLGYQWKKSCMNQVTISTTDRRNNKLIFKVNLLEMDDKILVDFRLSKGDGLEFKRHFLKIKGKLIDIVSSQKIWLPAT

Structure (SMILES) | IC50 [1] | Cellular Selectivity (Activity Index) [2] | Cell Efficacy + SN38 in HT29 cells (Potentiation Index) [3] | more potent than the next most potent compound (Y-154), MIA cellular potency [4] | Oral Bioavailability in Mouse [5] | bioavailability ([5]; female, Balb/c, mouse, in vivo, 10 mg/kg)
COCC#Cc1cnc(Nc2cnc(C#N)cn2)cc1NC[C@@H]1CNCCO1 [Compound Y-154] | 1 nM | 9.0 fold | 0.8 fold | – | – | –
COC(C)(C)C#Cc1cnc(Nc2cnc(C#N)cn2)cc1NC[C@@H]1CNCCO1 [Compound Y-155] | 5 nM | – | 0.9 fold | – | – | –
N#Cc1cnc(Nc2cc(NC[C@@H]3CNCCO3)c(C(F)(F)F)cn2)cn1 [Compound 2, 5-[[4-[[(2S)-Morpholin-2-yl]methylamino]-5-(trifluoromethyl)-2-pyridyl]amino]pyrazine-2-carbonitrile] | – | – | – | ~5 fold | – | –
COCc1ccc(-c2cnc(Nc3cnc(C#N)cn3)cc2NC[C@H]2CNCCO2)cc1 [Compound Y-156] | 10 nM | 5.4 fold | 1.6 fold | – | – | –
COCc1ccc(-c2cnc(Nc3cnc(C#N)cn3)cc2NC[C@@H]2CNCCO2)cc1 [Compound Y-148] | 13 nM | 4.4 fold | – | – | – | –
COCCOc1ccc(-c2cnc(Nc3cnc(C#N)cn3)cc2NC[C@@H]2CNCCO2)cc1 [Compound Y-149] | 10 nM | 3.5 fold | – | – | – | –
COCCOc1ccc(-c2cnc(Nc3cnc(C#N)cn3)cc2NC[C@H]2CNCCO2)cc1 [Compound Y-157] | 15 nM | 6.3 fold | 2 fold | – | – | –
N#Cc1cnc(Nc2cc(NC[C@H]3CNCCO3)c(C(F)(F)F)cn2)cn1 [Compound 1, 5-[[4-[[(2R)-Morpholin-2-yl]methylamino]-5-(trifluoromethyl)-2-pyridyl]amino]pyrazine-2-carbonitrile] | – | – | – | approximately 3 fold | 105% | 100%
COCCCc1cnc(Nc2cnc(C#N)cn2)cc1NC[C@H]1CNCCO1 [Compound Y-159] | 23 nM | – | – | – | – | –
N#Cc1cnc(Nc2cc(NCC3CNCCO3)c(C(=O)Nc3ccccc3)cn2)cn1 (stereo not shown) [Compound Y-102] | 20 nM | 4.6 fold | – | – | – | –

Source: US9663503B2, “5-[[4-[[morpholin-2-yl]methylamino]-5-(trifluoromethyl)-2-pyridyl]amino]pyrazine-2-carbonitrile and therapeutic uses thereof” (priority 2012, dated 2017)
